The target of one test is T1, Cysteine protease ATG4B (Homo sapiens, UniProt Q9Y4P1).
T1 sequence (Q9Y4P1 whole entry): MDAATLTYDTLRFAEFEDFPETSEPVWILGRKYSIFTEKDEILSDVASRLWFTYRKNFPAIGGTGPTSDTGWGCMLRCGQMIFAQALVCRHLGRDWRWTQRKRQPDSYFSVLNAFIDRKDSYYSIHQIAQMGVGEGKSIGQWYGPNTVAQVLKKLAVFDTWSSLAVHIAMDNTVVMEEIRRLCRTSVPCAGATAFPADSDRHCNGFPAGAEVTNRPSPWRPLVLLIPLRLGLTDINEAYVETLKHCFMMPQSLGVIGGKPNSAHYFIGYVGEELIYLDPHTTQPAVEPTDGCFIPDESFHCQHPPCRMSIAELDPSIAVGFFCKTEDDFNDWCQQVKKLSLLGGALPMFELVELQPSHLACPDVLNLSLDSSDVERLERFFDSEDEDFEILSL
In words: Inhibition of ATG4B (unknown origin) using proLC3B as substrate by FRET-LC3 assay.

The subject of the next test is HCT-116. In words: Antitumor activity against human HCT-116 cells […] in mouse assessed as tumor growth inhibition at 50 mg/kg,sc administered for 5 weeks by 3 times a week. The test is classed as functional. Conditions: HCT-116, 840 h.

A word on the IC50: it is the point on the concentration scale where inhibition reaches its midpoint. Read a high IC50 as a need for much substance. For `O=C(N[C@@H](Cc1ccccc1)C(=O)CCl)OCc1ccccc1`, at Cysteine protease ATG4B, the concentration for half-maximal inhibition (IC50) is 3.3 µM.

Usually inhibition in vivo stands for how much of the control response was suppressed. On to `COc1ccc(Nc2cc(C)nc(Nc3ccc(-c4cc5ccccc5o4)cc3)n2)cc1`, for which the inhibition in vivo at 50 mg/kg in the test on HCT-116 was found to be 75%.

Consider `Cc1cc(O)c2c(=O)c3c(O)cc(O)c4c5c(O)cc(O)c6c(=O)c7c(O)cc(C)c8c1c2c(c34)c(c78)c65` [HYPERICIN], for which the half-maximal inhibitory concentration (IC50) at Cysteine protease ATG4B worked out at 8.9 µM.

The values above are taken from ChEMBL document CHEMBL5214882, “Targeting Atg4B for cancer therapy: Chemical mediators” (Eur J Med Chem, 2021).
